Patent US9399649B2, “Compounds for treating spinal muscular atrophy” (PTC Therapeutics Inc., priority 2012, dated 2016)

Assays:
[1] = test system: full length SMN2 minigene mRNA containing SMN2 exon 7; assay: SMN2 minigene mRNA splicing RT-qPCR assay in cultured cells; type: cell-based, human; details: Homo sapiens, HEK293-H; HEK293H cells stably transfected with SMN2-A minigene, 24 hours, 7-point concentration curve; concentration giving 1.5-fold full length SMN2 mRNA vs vehicle; read-out: EC1.5x for production of full length SMN2 mRNA
In short: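 Read-out is minigene FL mRNA (exon 7 included) relative to vehicle, from efficiency-corrected ΔΔCt with GAPDH normalisation. Primers and probe span exon 7, exon 8 and luciferase, so endogenous SMN is not detected. Stable SMN2-A minigene HEK293H cells, 24 h compound exposure at 37 °C, 7-point curve in duplicate.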

Smn protein = Smn protein assay in cultured cells (SMN HTRF); type: cell-based, human; details: SMA patient fibroblast cells (GM03813), 48 hours; for EC1.5x for Smn protein expression: 7-point concentration curve, concentration producing 1.5 times Smn protein vs DMSO vehicle; for maximum fold (Fold) increase of Smn protein: 7-point concentration data, relative to vehicle control
In short: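 Smn protein measured by HTRF (anti-SMN d2/kryptate) in lysates of SMA patient fibroblasts after 48 h compound treatment, 7-point 3.16-fold dilutions, triplicates. The 665/620 nm ratio is blank-corrected to ΔF, then divided by the vehicle ΔF to give fold increase.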

| Structure (SMILES) | EC (1.5-fold) [1] | EC1.5x for Smn protein expression (Smn protein) | maximum fold (Fold) increase of Smn protein (Smn protein) | melting point |
| --- | --- | --- | --- | --- |
| CCN1CCN(c2ccc3cc(-c4cn5cc(C)nc(C)c5n4)oc(=O)c3c2)C[C@@H]1C [Cpd 135, 3-(6,8-dimethylimidazo[1,2-a]pyrazin-2-yl)-7-[(3S)-4-ethyl-3-methylpiperazin-1-yl]-1H-isochromen-1-one] | ≤ 0.1 µM | **** (an EC1.5×≦0.3 nM is indicated by four stars (****)) | ***** (a fold increase >1.65 is indicated by five stars (*****)) | 238 to 243 °C |
| Cc1cn2cc(-c3cc4ccc(N5CCN(C6COC6)CC5)cc4c(=O)o3)nc2c(C)n1 [Cpd 97, 3-(6,8-dimethylimidazo[1,2-a]pyrazin-2-yl)-7-[4-(oxetan-3-yl)piperazin-1-yl]-1H-isochromen-1-one] | 1 to 3 µM | – | *** (a fold increase between >1.35 and ≦1.5 is indicated by three stars (***)) | 294 to 296 °C |
| Cc1cn2cc(-c3cc4ccc(N5CCN(CCO)CC5)cc4c(=O)o3)cc2c(C)n1 [Cpd 79, 3-(1,3-dimethylpyrrolo[1,2-a]pyrazin-7-yl)-7-[4-(2-hydroxyethyl)piperazin-1-yl]-1H-isochromen-1-one] | ≤ 0.1 µM | **** (an EC1.5×≦0.3 nM is indicated by four stars (****)) | **** (a fold increase between >1.5 and ≦1.65 is indicated by four stars (****)) | 240 to 242 °C |
| Cc1cn2cc(-c3cc4ccc(N5CCN(C6CC6)CC5)cc4c(=O)o3)nc2c(C)n1 [Cpd 84, 7-(4-cyclopropylpiperazin-1-yl)-3-(6,8-dimethylimidazo[1,2-a]pyrazin-2-yl)-1H-isochromen-1-one] | 0.1 to 0.3 µM | *** (an EC1.5× between >0.3 nM and ≦1 nM is indicated by three stars (***)) | ***** (a fold increase >1.65 is indicated by five stars (*****)) | 260 °C (dec.) |
| Cc1cc2cc(-c3cc4ccc(N5CCNCC5)cc4c(=O)o3)ccc2o1 [Cpd 52, 3-(2-methyl-1-benzofuran-5-yl)-7-(piperazin-1-yl)-1H-isochromen-1-one] | 0.1 to 0.3 µM | * (An EC1.5× for Smn protein expression between >3 μM and <10 μM is indicated by one star (*)) | *** (a fold increase between >1.35 and ≦1.5 is indicated by three stars (***)) | 206 to 208 °C |
| CN1CCCN(c2ccc3cc(-c4nc5ccccc5s4)oc(=O)c3c2)CC1 [Cpd 11, 3-(1,3-benzothiazol-2-yl)-7-(4-methyl-1,4-diazepan-1-yl)-1H-isochromen-1-one] | 0.3 to 1 µM | – | * (A maximum fold increase of ≦1.2 is indicated by one star (*)) | 270 to 272 °C |
| C[C@H]1CN(c2ccc3cc(-c4cn5ccsc5n4)oc(=O)c3c2)CCN1 [Cpd 55, 3-(imidazo[2,1-b][1,3]thiazol-6-yl)-7-[(3S)-3-methylpiperazin-1-yl]-1H-isochromen-1-one] | 0.1 to 0.3 µM | – | ** (a fold increase between >1.2 and ≦1.35 is indicated by two stars (**)) | 340 to 342 °C |
| Cc1cn2cc(-c3cc4ccc(N5C[C@@H](C)N[C@@H](C)C5)cc4c(=O)o3)nc2c(C)n1 [Cpd 64, 3-(6,8-dimethylimidazo[1,2-a]pyrazin-2-yl)-7-[(3R,5S)-3,5-dimethylpiperazin-1-yl]-1H-isochromen-1-one] | ≤ 0.1 µM | **** (an EC1.5×≦0.3 nM is indicated by four stars (****)) | ***** (a fold increase >1.65 is indicated by five stars (*****)) | 244 to 246 °C |
| Cc1cn2cc(-c3cc4ccc(C5=CCN(C(C)C)CC5)cc4c(=O)o3)nc2c(C)n1 [Cpd 91, 3-(6,8-dimethylimidazo[1,2-a]pyrazin-2-yl)-7-[1-(propan-2-yl)-1,2,3,6-tetrahydropyridin-4-yl]-1H-isochromen-1-one] | ≤ 0.1 µM | *** (an EC1.5× between >0.3 nM and ≦1 nM is indicated by three stars (***)) | *** (a fold increase between >1.35 and ≦1.5 is indicated by three stars (***)) | 259 to 261 °C |
| O=c1oc(-c2ccc3c(c2)OC(F)(F)O3)cc2ccc(N3CCNCC3)cc12 [Cpd 6, 3-(2,2-difluoro-1,3-benzodioxol-5-yl)-7-(piperazin-1-yl)-1H-isochromen-1-one] | 1 to 3 µM | – | * (A maximum fold increase of ≦1.2 is indicated by one star (*)) | 220 to 222 °C |
| COc1ccc(-c2cc3ccc(N4CCN(C)[C@@H](C)C4)cc3c(=O)o2)cc1OC [Cpd 67, 3-(3,4-dimethoxyphenyl)-7-[(3S)-3,4-dimethylpiperazin-1-yl]-1H-isochromen-1-one] | 0.3 to 1 µM | ** (an EC1.5× between >1 μM, and ≦3 nM is indicated by two stars (**)) | *** (a fold increase between >1.35 and ≦1.5 is indicated by three stars (***)) | 138 to 140 °C |
| C[C@H]1CN(c2ccc3cc(-c4cccc(O)c4)oc(=O)c3c2)CCN1 [Cpd 44, 3-(3-hydroxyphenyl)-7-[(3S)-3-methylpiperazin-1-yl]-1H-isochromen-1-one] | 3 to 30 µM | – | ** (a fold increase between >1.2 and ≦1.35 is indicated by two stars (**)) | 256 to 258 °C |
| Cc1cn2cc(-c3cc4ccc(N5C[C@@H](C)N(CCO)[C@@H](C)C5)cc4c(=O)o3)nc2cn1 [Cpd 130, 7-[(3R,5S)-4-(2-hydroxyethyl)-3,5-dimethylpiperazin-1-yl]-3-(6-methylimidazo[1,2-a]pyrazin-2-yl)-1H-isochromen-1-one] | ≤ 0.1 µM | **** (an EC1.5×≦0.3 nM is indicated by four stars (****)) | **** (a fold increase between >1.5 and ≦1.65 is indicated by four stars (****)) | 241 to 245 °C |
| COc1ccc(-c2cc3ccc(N4CCN[C@@H](C)C4)cc3c(=O)o2)c(OC)c1 [Cpd 50, 3-(2,4-dimethoxyphenyl)-7-[(3S)-3-methylpiperazin-1-yl]-1H-isochromen-1-one] | ≤ 0.1 µM | ** (an EC1.5× between >1 μM, and ≦3 nM is indicated by two stars (**)) | *** (a fold increase between >1.35 and ≦1.5 is indicated by three stars (***)) | 231 °C (dec.) |
| CN1CCN(c2ccc3cc(-c4cn5cccc(Cl)c5n4)oc(=O)c3c2)CC1 [Cpd 61, 3-(8-chloroimidazo[1,2-a]pyridin-2-yl)-7-(4-methylpiperazin-1-yl)-1H-isochromen-1-one] | 1 to 3 µM | – | * (A maximum fold increase of ≦1.2 is indicated by one star (*)) | 240 °C (dec.) |
| CCc1nc(C)cn2cc(-c3cc4ccc(C5=CCNCC5)cc4c(=O)o3)nc12 [Cpd 159, 3-(8-ethyl-6-methylimidazo[1,2-a]pyrazin-2-yl)-7-(1,2,3,6-tetrahydropyridin-4-yl)-1H-isochromen-1-one] | ≤ 0.1 µM | **** (an EC1.5×≦0.3 nM is indicated by four stars (****)) | ***** (a fold increase >1.65 is indicated by five stars (*****)) | 239 to 241 °C |
| CN1CCCN(c2ccc3cc(-c4ccc5c(c4)OC(F)(F)O5)oc(=O)c3c2)CC1 [Cpd 7, 3-(2,2-difluoro-1,3-benzodioxol-5-yl)-7-(4-methyl-1,4-diazepan-1-yl)-1H-isochromen-1-one] | 1 to 3 µM | – | * (A maximum fold increase of ≦1.2 is indicated by one star (*)) | 175 to 177 °C |
| Cc1cn2cc(-c3cc4ccc(C5=CCNCC5)cc4c(=O)o3)nc2c(C)n1 [Cpd 88, 3-(6,8-dimethylimidazo[1,2-a]pyrazin-2-yl)-7-(1,2,3,6-tetrahydropyridin-4-yl)-1H-isochromen-1-one] | ≤ 0.1 µM | **** (an EC1.5×≦0.3 nM is indicated by four stars (****)) | **** (a fold increase between >1.5 and ≦1.65 is indicated by four stars (****)) | 266 °C (dec.) |
| Cc1cn2cc(-c3cc4ccc(N5CCC(N(C)C)CC5)cc4c(=O)o3)nc2c(C)n1 [Cpd 124, 7-[4-(dimethylamino)piperidin-1-yl]-3-(6,8-dimethylimidazo[1,2-a]pyrazin-2-yl)-1H-isochromen-1-one] | ≤ 0.1 µM | **** (an EC1.5×≦0.3 nM is indicated by four stars (****)) | **** (a fold increase between >1.5 and ≦1.65 is indicated by four stars (****)) | 274 to 276 °C |
| CCCN1CCN(c2ccc3cc(-c4cn5cc(C)nc(C)c5n4)oc(=O)c3c2)CC1 [Cpd 82, 3-(6,8-dimethylimidazo[1,2-a]pyrazin-2-yl)-7-(4-propylpiperazin-1-yl)-1H-isochromen-1-one] | ≤ 0.1 µM | **** (an EC1.5×≦0.3 nM is indicated by four stars (****)) | ***** (a fold increase >1.65 is indicated by five stars (*****)) | 244 to 246 °C |
